Source: PMC9133015 (Nature Communications, 2022)
Where “and” joins values, the source holds several entries; their conditions need not be identical. Equal entries are not always repeated.

What was measured:
[1] = target: T1, DYRK1B (Homo sapiens, UniProt Q9Y463); assay: DYRKs kinase activity assay (33P-ATP, DYRKtide substrate): DYRK1B; format: biochemical
T1 construct: purchased Reaction Biology Corporation (assay service)

[2] = system: 22Rv1 shDYRK2 cells; assay: Anti-proliferation activity assay (CCK8, 72 h); format: cell-based, human
[3] = system: DU145 shDYRK2 cells; assay: Anti-proliferation activity assay (CCK8, 72 h); format: cell-based, human
[4] = target: T2, DYRK3 (Homo sapiens, UniProt O43781); assay: DYRKs kinase activity assay (33P-ATP, DYRKtide substrate): DYRK3; format: biochemical
T2 construct: purchased Reaction Biology Corporation (assay service)
T2 sequence (O43781 1-588): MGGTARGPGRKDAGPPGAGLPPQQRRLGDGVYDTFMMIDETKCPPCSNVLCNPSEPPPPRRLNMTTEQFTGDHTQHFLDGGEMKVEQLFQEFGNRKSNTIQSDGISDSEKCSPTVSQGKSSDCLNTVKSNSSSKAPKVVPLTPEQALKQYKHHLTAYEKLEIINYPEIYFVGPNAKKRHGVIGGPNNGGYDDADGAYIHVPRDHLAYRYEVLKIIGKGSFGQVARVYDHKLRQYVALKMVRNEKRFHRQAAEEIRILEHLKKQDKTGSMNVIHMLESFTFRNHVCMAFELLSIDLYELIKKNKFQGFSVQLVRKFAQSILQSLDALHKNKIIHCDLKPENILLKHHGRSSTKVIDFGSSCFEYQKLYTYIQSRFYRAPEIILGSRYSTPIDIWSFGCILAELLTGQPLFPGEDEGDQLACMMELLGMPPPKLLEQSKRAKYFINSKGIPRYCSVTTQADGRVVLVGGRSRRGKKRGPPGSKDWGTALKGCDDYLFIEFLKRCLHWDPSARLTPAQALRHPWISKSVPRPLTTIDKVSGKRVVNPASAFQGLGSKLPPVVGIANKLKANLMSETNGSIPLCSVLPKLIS

[5] = target: T3, DYRK2 protein (Homo sapiens, UniProt Q92630); assay: Microscale thermophoresis binding assay; conditions: for Fnorm: triplicates
T3 construct: 6xHis (N, cleaved yes); TEV protease cleavage site (N, cleaved yes); made in house; host or cells: E. coli BL21 (DE3)
T3 sequence (Q92630 72-479 isoform Q92630-2): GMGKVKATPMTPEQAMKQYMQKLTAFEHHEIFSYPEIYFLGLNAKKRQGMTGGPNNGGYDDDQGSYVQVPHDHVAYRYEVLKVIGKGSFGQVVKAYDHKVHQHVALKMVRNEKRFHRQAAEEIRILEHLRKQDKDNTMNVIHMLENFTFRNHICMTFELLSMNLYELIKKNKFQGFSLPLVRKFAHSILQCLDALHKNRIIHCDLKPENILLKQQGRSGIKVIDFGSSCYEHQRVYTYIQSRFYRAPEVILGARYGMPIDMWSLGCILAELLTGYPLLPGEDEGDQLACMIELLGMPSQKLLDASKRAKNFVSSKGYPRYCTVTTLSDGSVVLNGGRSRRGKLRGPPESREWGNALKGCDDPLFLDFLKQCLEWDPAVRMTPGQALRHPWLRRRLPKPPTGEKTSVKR

[6] = Homo sapiens, 22Rv1, read-out: inhibitory rate (%) mean
[7] = Homo sapiens, DU-145, read-out: inhibitory rate (%) mean

T1 sequence (Q9Y463 whole entry): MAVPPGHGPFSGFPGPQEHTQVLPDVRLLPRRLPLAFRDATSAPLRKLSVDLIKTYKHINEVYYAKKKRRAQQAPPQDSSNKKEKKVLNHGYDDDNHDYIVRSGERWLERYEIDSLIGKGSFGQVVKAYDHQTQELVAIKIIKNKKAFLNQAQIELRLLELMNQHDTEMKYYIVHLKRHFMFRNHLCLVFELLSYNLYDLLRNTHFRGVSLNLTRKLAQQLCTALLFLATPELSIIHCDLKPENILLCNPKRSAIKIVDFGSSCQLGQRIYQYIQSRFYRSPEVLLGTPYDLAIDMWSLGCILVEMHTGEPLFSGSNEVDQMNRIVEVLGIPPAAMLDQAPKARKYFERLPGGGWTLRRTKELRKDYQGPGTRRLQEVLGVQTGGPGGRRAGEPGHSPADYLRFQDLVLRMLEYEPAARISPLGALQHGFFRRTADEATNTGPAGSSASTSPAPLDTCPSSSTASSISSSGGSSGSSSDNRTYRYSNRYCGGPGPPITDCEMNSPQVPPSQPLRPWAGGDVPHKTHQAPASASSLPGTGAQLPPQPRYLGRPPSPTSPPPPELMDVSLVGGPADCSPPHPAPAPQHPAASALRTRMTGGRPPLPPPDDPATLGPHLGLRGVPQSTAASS

CCN1CCN(C(=O)c2ccc(Nc3ncc(F)c(-c4ccc5nc(N(C)C)sc5c4)n3)nc2)CC1 [YK-2-69]
IC50 [1]: 542 nM
% Inhibition DYRK1B ([1]; 0.000762079 µM, duplicates): 3.06% and 6.85%
% Inhibition DYRK1B ([1]; 0.00228624 µM, duplicates): 3.24%
inhibition at 0.00228624 µM ([1]; 0.00228624 µM, duplicates): 5.73%
% Inhibition DYRK1B ([1]; 0.00685871 µM, duplicates): 11.00%
inhibition at 0.00685871 µM ([1]; 0.00685871 µM, duplicates): 7.22%
% Inhibition DYRK1B ([1]; 0.0205761 µM, duplicates): 13.48%
inhibition at 0.0205761 µM ([1]; 0.0205761 µM, duplicates): 9.47%
% Inhibition DYRK1B ([1]; 0.0617284 µM, duplicates): 24.87%
inhibition at 0.0617284 µM ([1]; 0.0617284 µM, duplicates): 26.4%
% Inhibition DYRK1B ([1]; 0.185185 µM, duplicates): 44.86%
inhibition at 0.185185 µM ([1]; 0.185185 µM, duplicates): 44.6%
% Inhibition DYRK1B ([1]; 0.555556 µM, duplicates): 57.04%
inhibition at 0.555556 µM ([1]; 0.555556 µM, duplicates): 57.3%
% Inhibition DYRK1B ([1]; 1.66667 µM, duplicates): 62.26%
% Inhibition DYRK1B ([1]; 5 µM, duplicates): 64.81%
inhibition at 5 µM ([1]; 5 µM, duplicates): 65.1%
inhibition at 1.66667 µM ([1]; read-out: % Inhibition DYRK1B, 1.66667 µM, duplicates): 62.7%
selectivity over DYRK1B ([1]; vs DYRK2): 60 fold
inhibitory activity on proliferation (in words) ([2]; 22Rv1 shDYRK2 cells, even at 80 μM): almost no inhibitory activity
inhibition at 10 µM [2, 6]: 19.7%
inhibition at 2.5 µM [2, 6]: 17.3%
inhibition at 20 µM [2, 6]: 26.3%
inhibition at 0.625 µM ([2]; Homo sapiens, 22Rv1 KD, inhibitor 0.625 uM, read-out: inhibitory rate (%) mean): 9.79%
inhibition at 1.25 µM ([2]; Homo sapiens, 22Rv1 KD, inhibitor 1.25 uM, read-out: inhibitory rate (%) mean): 14.3%
inhibition at 5 µM ([2]; Homo sapiens, 22Rv1 KD, inhibitor 5 uM, read-out: inhibitory rate (%) mean): 19.2%
inhibition at 40 µM ([2]; Homo sapiens, 22Rv1 KD, inhibitor 40 uM, read-out: inhibitory rate (%) mean): 31.8%
inhibition at 80 µM ([2]; Homo sapiens, 22Rv1 KD, inhibitor 80 uM, read-out: inhibitory rate (%) mean): 43.8%
IC50 ([2]; Homo sapiens, 22Rv1 shDYRK2 cells, read-out: IC50 antiproliferative activity): > 80000 nM
inhibitory activity on proliferation (in words) ([3]; DU145 shDYRK2 cells, even at 80 μM): almost no inhibitory activity
inhibition at 0.625 µM ([3]; Homo sapiens, DU-145, DU145 KD, inhibitor 0.625 uM, read-out: inhibitory rate (%) mean): 7.98%
inhibition at 1.25 µM ([3]; Homo sapiens, DU-145, DU145 KD, inhibitor 1.25 uM, read-out: inhibitory rate (%) mean): 10.3%
inhibition at 5 µM ([3]; Homo sapiens, DU-145, DU145 KD, inhibitor 5 uM, read-out: inhibitory rate (%) mean): 13.5%
inhibition at 10 µM ([3]; Homo sapiens, DU-145, DU145 KD, inhibitor 10 uM, read-out: inhibitory rate (%) mean): 15.4%
inhibition at 40 µM ([3]; Homo sapiens, DU-145, DU145 KD, inhibitor 40 uM, read-out: inhibitory rate (%) mean): 17.2%
inhibition at 80 µM ([3]; Homo sapiens, DU-145, DU145 KD, inhibitor 80 uM, read-out: inhibitory rate (%) mean): 18.1%
IC50 ([3]; Homo sapiens, DU-145, DU145 shDYRK2 cells, read-out: IC50 antiproliferative activity): > 80000 nM
inhibition at 2.5 µM [3, 7]: 11.8%
inhibition at 20 µM [3, 7]: 16%
IC50 [4]: > 1000 nM
% Inhibition DYRK3 ([4]; 0.000762079 µM, duplicates): -8.00% and -1.03%
% Inhibition DYRK3 ([4]; 0.00228624 µM, duplicates): -10.03% and -2.95%
% Inhibition DYRK3 ([4]; 0.00685871 µM, duplicates): -8.21% and -7.66%
% Inhibition DYRK3 ([4]; 0.0205761 µM, duplicates): -2.65% and -5.02%
% Inhibition DYRK3 ([4]; 0.0617284 µM, duplicates): 11.61%
inhibition at 0.0617284 µM ([4]; 0.0617284 µM, duplicates): 6.58%
% Inhibition DYRK3 ([4]; 0.185185 µM, duplicates): 29.90%
inhibition at 0.185185 µM ([4]; 0.185185 µM, duplicates): 28.2%
% Inhibition DYRK3 ([4]; 0.555556 µM, duplicates): 51.81%
inhibition at 0.555556 µM ([4]; 0.555556 µM, duplicates): 49.4%
% Inhibition DYRK3 ([4]; 1.66667 µM, duplicates): 53.48%
% Inhibition DYRK3 ([4]; 5 µM, duplicates): 56.27%
inhibition at 5 µM ([4]; 5 µM, duplicates): 56.1%
inhibition at 1.66667 µM ([4]; read-out: % Inhibition DYRK3, 1.66667 µM, duplicates): 50.8%
selectivity over DYRK3 ([4]; vs DYRK2): more than 100 fold
Kd [5]: 92 nM
Fnorm ([5]; Ligand Concentration 1.52588e-9 M): 967.581 ‰ and 966.546 ‰ and 966.864 ‰
Fnorm ([5]; Ligand Concentration 3.05176e-9 M): 966.58 ‰ and 965.007 ‰ and 967.223 ‰
Fnorm ([5]; Ligand Concentration 6.10352e-9 M): 966.992 ‰ and 966.91 ‰ and 966.101 ‰
Fnorm ([5]; Ligand Concentration 1.2207e-8 M): 967.371 ‰ and 966.328 ‰ and 967.725 ‰
Fnorm ([5]; Ligand Concentration 2.44141e-8 M): 967.449 ‰ and 966.053 ‰ and 966.951 ‰
Fnorm ([5]; Ligand Concentration 4.88281e-8 M): 966.087 ‰ and 966.251 ‰ and 967.971 ‰
Fnorm ([5]; Ligand Concentration 9.76563e-8 M): 964.723 ‰ and 963.783 ‰ and 964.77 ‰
Fnorm ([5]; Ligand Concentration 1.95313e-7 M): 965.362 ‰ and 964.006 ‰ and 962.948 ‰
Fnorm ([5]; Ligand Concentration 3.90625e-7 M): 961.623 ‰ and 962.98 ‰ and 964.971 ‰
Fnorm ([5]; Ligand Concentration 7.8125e-7 M): 963.524 ‰ and 964.437 ‰ and 962.941 ‰
Fnorm ([5]; Ligand Concentration 1.5625e-6 M): 963.3 ‰ and 963.031 ‰ and 962.056 ‰
Fnorm ([5]; Ligand Concentration 3.125e-6 M): 962.439 ‰ and 962.002 ‰ and 962.785 ‰
Fnorm ([5]; Ligand Concentration 6.25e-6 M): 962.791 ‰ and 963.606 ‰ and 963.319 ‰
Fnorm ([5]; Ligand Concentration 1.25e-5 M): 961.109 ‰ and 965.797 ‰ and 962.38 ‰
Fnorm ([5]; Ligand Concentration 2.5e-5 M): 962.063 ‰ and 963.029 ‰ and 959.958 ‰
Fnorm ([5]; Ligand Concentration 5e-5 M): 962.013 ‰ and 961.244 ‰ and 962.047 ‰
